The source of these data is US20140005163A1 (NOVARTIS AG, priority 2010, published 2014).

Bounds are passed on as bounds.

One experiment has as its target T1, PI3K beta (Homo sapiens, UniProt P42338).
T1 construct: for the full-length p110-b subunit are generated and fused by overlapping PCR; p85(iSH2) fusion partner (see partner chain) (N); His tag (C); made in house; host or cells: baculovirus; Tn5 (Trichoplusia ni) or TiniPro insect cells
As to the kind of experiment: PI3K beta kinase assay (Kinase-Glo luminescence). Format: biochemical. A digest of the protocol:
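Full-length p110β with a Gly-linked p85 iSH2 and a C-terminal His tag (BV949, 25 nM) was incubated with 10 μg/mL phosphatidylinositol and 1 μM ATP in 10 mM Tris pH 7.5, 3 mM MgCl2, 50 mM NaCl, 0.05% CHAPS, 1 mM DTT for 60 min at room temperature. Residual ATP was read by Kinase-Glo luminescence.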
(In Kinase-Glo more light means more ATP remaining.)

Experiment [1] concerns S6 Ribosomal Protein phosphorylation Ser235/236 in TSC1 null mouse embryo fibroblast (MEF) cells. As to the kind of experiment: Reverse protein array assay, S6 Ribosomal Protein phosphorylation Ser235/236 in TSC1 null MEF cells. Format: cell-based. The settings on record: 1 h, pS6 ribosomal protein Ser235/236, 60 minutes incubation, read-out: p-S6 IC50. The gist of the method: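 TSC1−/− MEFs, seeded and held ≥20 h at 37 °C/5% CO2, were exposed to 8-step serial compound dilutions (0.02% DMSO final; DMSO vehicle control) for 60 min at 37 °C. Cells were then lysed on ice for 10 min and lysates spotted onto reverse protein array chips.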

T1 sequence (P42338 with tags, fused parts or gaps limits assumed): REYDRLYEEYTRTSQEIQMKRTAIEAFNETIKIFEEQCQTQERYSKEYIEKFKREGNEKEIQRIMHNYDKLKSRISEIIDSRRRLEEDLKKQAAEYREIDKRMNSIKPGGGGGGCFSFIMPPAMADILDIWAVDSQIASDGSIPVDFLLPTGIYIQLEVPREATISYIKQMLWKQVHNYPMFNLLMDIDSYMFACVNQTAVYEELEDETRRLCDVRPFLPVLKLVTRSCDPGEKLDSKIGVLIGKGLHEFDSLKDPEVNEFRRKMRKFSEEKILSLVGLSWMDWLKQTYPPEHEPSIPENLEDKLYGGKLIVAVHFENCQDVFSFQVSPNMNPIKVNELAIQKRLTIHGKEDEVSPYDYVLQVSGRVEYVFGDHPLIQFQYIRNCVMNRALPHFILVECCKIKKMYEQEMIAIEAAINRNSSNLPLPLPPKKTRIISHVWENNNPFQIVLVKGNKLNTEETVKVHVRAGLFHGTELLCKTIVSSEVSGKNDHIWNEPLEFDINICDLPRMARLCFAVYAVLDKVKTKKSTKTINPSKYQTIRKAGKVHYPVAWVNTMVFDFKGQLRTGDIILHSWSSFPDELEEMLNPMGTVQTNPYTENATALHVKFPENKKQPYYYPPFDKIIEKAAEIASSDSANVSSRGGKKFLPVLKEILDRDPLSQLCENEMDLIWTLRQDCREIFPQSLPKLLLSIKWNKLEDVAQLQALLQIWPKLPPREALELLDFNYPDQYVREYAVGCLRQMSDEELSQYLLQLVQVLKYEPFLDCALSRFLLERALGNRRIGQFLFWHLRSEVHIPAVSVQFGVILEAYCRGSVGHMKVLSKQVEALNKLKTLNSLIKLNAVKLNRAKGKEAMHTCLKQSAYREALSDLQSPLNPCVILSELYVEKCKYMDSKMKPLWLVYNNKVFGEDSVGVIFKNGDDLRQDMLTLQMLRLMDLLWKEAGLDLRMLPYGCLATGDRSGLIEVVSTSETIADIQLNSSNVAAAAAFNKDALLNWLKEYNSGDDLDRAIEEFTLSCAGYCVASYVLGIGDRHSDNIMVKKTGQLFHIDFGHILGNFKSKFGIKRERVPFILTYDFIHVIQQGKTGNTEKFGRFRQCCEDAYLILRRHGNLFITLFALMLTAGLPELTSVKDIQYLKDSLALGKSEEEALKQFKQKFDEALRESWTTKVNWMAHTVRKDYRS

As usually defined, the IC50 is the midpoint of a concentration-inhibition curve. In the case of `CN(C)c1ncc(-c2ccc3ncc4c(c3c2)n(-c2cn(C)nc2Cl)c(=O)n4C)cn1` [Example 6.3, 1-(3-Chloro-1-methyl-1H-pyrazol-4-yl)-8-(2-dimethylamino-pyrimidin-5-yl)-3-methyl-1,3-dihydro-imidazo[4,5-c]quinolin-2-one], the IC50 on PI3K beta amounted to 51 nM; in experiment [1] it was 8 nM.

For `Cc1nn(C)cc1-n1c(=O)n(C)c2cnc3ccc(-c4cnc(N)c(C(F)(F)F)c4)cc3c21` [Example 25.1, 8-(6-Amino-5-trifluoromethyl-pyridin-3-yl)-1-(1,3-dimethyl-1H-pyrazol-4-yl)-3-methyl-1,3-dihydro-imidazo[4,5-c]quinolin-2-one], the IC50 came out at 19 nM at PI3K beta and 1 nM in experiment [1].

For `Cc1cc(-n2c(=O)n(C)c3cnc4ccc(-c5cnc(N)c(C(F)(F)F)c5)cc4c32)n(C)n1` [Example 25.6, 8-(6-Amino-5-trifluoromethyl-pyridin-3-yl)-1-(2,5-dimethyl-2H-pyrazol-3-yl)-3-methyl-1,3-dihydro-imidazo[4,5-c]quinolin-2-one], the IC50 on PI3K beta was determined as 133 nM; in experiment [1], 1 nM.

On to `CC(C)Oc1cncc(-c2ccc3ncc4c(c3c2)n(-c2cn(C)nc2Cl)c(=O)n4C)c1` [Example 58.2, 1-(3-Chloro-1-methyl-1H-pyrazol-4-yl)-8-(5-isopropoxy-pyridin-3-yl)-3-methyl-1,3-dihydro-imidazo[4,5-c]quinolin-2-one], for which the concentration for half-maximal inhibition (IC50) at PI3K beta came to 5 nM; in experiment [1], 4 nM.

Regarding `Cc1nn(C)cc1-n1c(=O)n(C)c2cnc3ccc(-c4cncc(OC5CCC5)c4)cc3c21` [Example 60.1, 8-(5-Cyclobutoxy-pyridin-3-yl)-1-(1,3-dimethyl-1H-pyrazol-4-yl)-3-methyl-1,3-dihydro-imidazo[4,5-c]quinolin-2-one], the IC50 at PI3K beta is 3 nM; in experiment [1], 1 nM.

On to `Cc1nn(C)cc1-n1c(=O)n(C)c2cnc3ccc(-c4cccc(OC(C)C)c4)cc3c21` [Example 82, 1-(1,3-Dimethyl-1H-pyrazol-4-yl)-8-(3-isopropoxy-phenyl)-3-methyl-1,3-dihydro-imidazo[4,5-c]quinolin-2-one], for which the IC50 turned out to be 154 nM at PI3K beta and 17 nM in experiment [1].

For `CCN(CC)c1cncc(-c2ccc3ncc4c(c3c2)n(-c2cn(C)nc2C)c(=O)n4C)c1` [Example 95, 8-(5-Diethylamino-pyridin-3-yl)-1-(1,3-dimethyl-1H-pyrazol-4-yl)-3-methyl-1,3-dihydro-imidazo[4,5-c]quinolin-2-one], the IC50 at PI3K beta was 41 nM; in experiment [1] it was 1 nM.

Turning to `Cc1nn(C)cc1-n1c(=O)n(C)c2cnc3ccc(-c4ccc(N5CCCC5)nc4)cc3c21` [Example 97, 1-(1,3-Dimethyl-1H-pyrazol-4-yl)-3-methyl-8-(6-pyrrolidin-1-yl-pyridin-3-yl)-1,3-dihydro-imidazo[4,5-c]quinolin-2-one], in experiment [1], the concentration for half-maximal inhibition (IC50) is 3 nM.

As to `CNc1ncc(-c2ccc3ncc4c(c3c2)n(-c2cn(C)nc2Cl)c(=O)n4C)cc1C` [Example 119, 1-(3-Chloro-1-methyl-1H-pyrazol-4-yl)-3-methyl-8-(5-methyl-6-methylamino-pyridin-3-yl)-1,3-dihydro-imidazo[4,5-c]quinolin-2-one], the values for the IC50 (on PI3K beta; in experiment [1]) were 20 nM and 1 nM, respectively.

Regarding `CNc1ncc(-c2ccc3ncc4c(c3c2)n(-c2cn(C(C)C)nc2C)c(=O)n4C)cc1C(F)(F)F` [Example 144.2, 1-(1-Isopropyl-3-methyl-1H-pyrazol-4-yl)-3-methyl-8-(6-methylamino-5-trifluoromethyl-pyridin-3-yl)-1,3-dihydro-imidazo[4,5-c]quinolin-2-one], the IC50 on PI3K beta was determined as 40 nM; in experiment [1], 1 nM.

As to `CCNc1ncc(-c2ccc3ncc4c(c3c2)n(-c2cn(C)nc2C)c(=O)n4C)cc1C(F)(F)F` [Example 145.2, 1-(1,3-Dimethyl-1H-pyrazol-4-yl)-8-(6-ethylamino-5-trifluoromethyl-pyridin-3-yl)-3-methyl-1,3-dihydro-imidazo[4,5-c]quinolin-2-one], the IC50 at PI3K beta stood at 50 nM; in experiment [1], 0.94 nM.

For `CCn1cc(-n2c(=O)n(C)c3cnc4ccc(-c5cnc(N)c(Cl)c5)cc4c32)c(C)n1` [Example 148.3, 8-(6-Amino-5-chloro-pyridin-3-yl)-1-(1-ethyl-3-methyl-1H-pyrazol-4-yl)-3-methyl-1,3-dihydro-imidazo[4,5-c]quinolin-2-one], the IC50 worked out at 3 nM on PI3K beta and 1 nM in experiment [1].

In the case of `Cc1cc(-n2c(=O)n(C)c3cnc4ccc(-c5cnc(F)c(N)c5)cc4c32)n(C)n1` [Example 149.3, 8-(5-Amino-6-fluoro-pyridin-3-yl)-1-(2,5-dimethyl-2H-pyrazol-3-yl)-3-methyl-1,3-dihydro-imidazo[4,5-c]quinolin-2-one], the figures for the IC50 (at PI3K beta; in experiment [1]) were 202 nM and 6.94 nM, respectively.

As for `Cc1nn(C(C)C)cc1-n1c(=O)n(C)c2cnc3ccc(-c4cnc(Cl)c(N)c4)cc3c21` [Example 152.1, 8-(5-Amino-6-chloro-pyridin-3-yl)-1-(1-isopropyl-3-methyl-1H-pyrazol-4-yl)-3-methyl-1,3-dihydro-imidazo[4,5-c]quinolin-2-one], the results for the IC50 (on PI3K beta; in experiment [1]) were 79 nM and 2 nM, respectively.

On to `Cc1nn(C)c(C)c1-n1c(=O)n(C)c2cnc3ccc(-c4cnc(Cl)c(N)c4)cc3c21` [Example 152.3, 8-(5-Amino-6-chloro-pyridin-3-yl)-3-methyl-1-(1,3,5-trimethyl-1H-pyrazol-4-yl)-1,3-dihydro-imidazo[4,5-c]quinolin-2-one], for which the IC50 at PI3K beta was determined as 79 nM; in experiment [1], 20 nM.

Take `CCOCc1cc(-c2ccc3ncc4c(c3c2)n(-c2cn(C(C)C)nc2C)c(=O)n4C)cnc1N` [Example 166.3, 8-(6-Amino-5-ethoxymethyl-pyridin-3-yl)-1-(1-isopropyl-3-methyl-1H-pyrazol-4-yl)-3-methyl-1,3-dihydro-imidazo[4,5-c]quinolin-2-one]: the concentration for half-maximal inhibition (IC50) at PI3K beta was determined as 81 nM; in experiment [1], 5 nM.

`CCOCc1cc(-c2ccc3ncc4c(c3c2)n(-c2cn(C)nc2Cl)c(=O)n4C)cnc1N` [Example 166.4, 8-(6-Amino-5-ethoxymethyl-pyridin-3-yl)-1-(3-chloro-1-methyl-1H-pyrazol-4-yl)-3-methyl-1,3-dihydro-imidazo[4,5-c]quinolin-2-one]: the half-maximal inhibitory concentration (IC50) at PI3K beta came to 10 nM; in experiment [1], 1 nM.

Take `Cc1nn(C(C)C)cc1-n1c(=O)n(C)c2cnc3ccc(-c4cnc5c(c4)COC(=O)N5C)cc3c21` [Example 170, 1-(1-Isopropyl-3-methyl-1H-pyrazol-4-yl)-3-methyl-8-(1-methyl-2-oxo-1,4-dihydro-2H-pyrido[2,3-d][1,3]oxazin-6-yl)-1,3-dihydro-imidazo[4,5-c]quinolin-2-one]: the IC50 at PI3K beta came to 395 nM; in experiment [1], 79 nM.

`Cc1nn(C)cc1-n1c(=O)n(C)c2cnc3ccc(-c4cncc(N(C)C5CCC5)c4)cc3c21` [Example 174, 8-[5-(Cyclobutyl-methyl-amino)-pyridin-3-yl]-1-(1,3-dimethyl-1H-pyrazol-4-yl)-3-methyl-1,3-dihydro-imidazo[4,5-c]quinolin-2-one]: the IC50 stood at 36 nM on PI3K beta and 3 nM in experiment [1].

Regarding `Cc1cc(-n2c(=O)n(C)c3cnc4ccc(-c5cnc(C)c(O)c5)cc4c32)n(C)n1` [Example 185.2, 1-(2,5-Dimethyl-2H-pyrazol-3-yl)-8-(5-hydroxy-6-methyl-pyridin-3-yl)-3-methyl-1,3-dihydro-imidazo[4,5-c]quinolin-2-one], the IC50 at PI3K beta came out at 56 nM; in experiment [1], 32 nM.

Consider `[2H]C([2H])([2H])OCc1ncc(-c2ccc3ncc4c(c3c2)n(-c2cn(C)nc2C)c(=O)n4C)cc1OCC` [Example 198, 1-(1,3-Dimethyl-1H-pyrazol-4-yl)-8-(5-ethoxy-6-trideuteromethoxymethyl-pyridin-3-yl)-3-methyl-1,3-dihydro-imidazo[4,5-c]quinolin-2-one], for which the figures for the IC50 (on PI3K beta; in experiment [1]) were 32 nM and 3 nM, respectively.

Regarding `CCn1cc(-n2c(=O)n(C)c3cnc4ccc(-c5cncc(C(C)(C)C#N)c5)cc4c32)c(C)n1` [Example 220.2, 2-{5-[1-(1-Ethyl-3-methyl-1H-pyrazol-4-yl)-3-methyl-2-oxo-2,3-dihydro-1H-imidazo[4,5-c]quinolin-8-yl]-pyridin-3-yl}-2-methyl-propionitrile], the IC50 at PI3K beta was found to be 41 nM; in experiment [1] it was 3 nM.

Take `CCNC(=O)c1cc(-c2ccc3ncc4c(c3c2)n(-c2cn(C(C)C)nc2C)c(=O)n4C)cnc1N` [Example 227, 2-Amino-N-ethyl-5-[1-(1-isopropyl-3-methyl-1H-pyrazol-4-yl)-3-methyl-2-oxo-2,3-dihydro-1H-imidazo[4,5-c]quinolin-8-yl]-nicotinamide]: the values for the IC50 (on PI3K beta; in experiment [1]) were 287 nM and 12 nM, respectively.

On to `COc1ncc(-c2ccc3ncc4c(c3c2)n(-c2cc(C)nn2C)c(=O)n4C)c(OC)n1` [Example 234.4, 8-(2,4-Dimethoxy-pyrimidin-5-yl)-1-(2,5-dimethyl-2H-pyrazol-3-yl)-3-methyl-1,3-dihydro-imidazo[4,5-c]quinolin-2-one], for which the values for the IC50 (on PI3K beta; in experiment [1]) were 359 nM and 10.1 nM, respectively.

`CNc1ccc(-c2ccc3ncc4c(c3c2)n(-c2cn(C(C)C)nc2C)c(=S)n4C)cn1` [Example 241, 1-(1-isopropyl-3-methyl-1H-pyrazol-4-yl)-3-methyl-8-(6-(methylamino)pyridin-3-yl)-1H-imidazo[4,5-c]quinoline-2(3H)-thione]: the 50% inhibitory concentration (IC50) at PI3K beta is 184 nM; in experiment [1] it was under 0.5 nM.
